Results as given in patent US20250059140A1, “C19 D[…], AND PREPARATION METHOD AND APPLICATION THEREOF” (SOUTHWEST JIAOTONG UNIVERSITY, priority 2022, published 2025).
“Also recorded” adds a separate entry of the source. Where two headings read alike, the source gives them in different places.

Experiments:
isolated bullfrog hearts = assay: Cardiotonic effect on isolated bullfrog hearts in vitro; conditions: for Cardiotonic effect compared with the positive control: 0.005 mol/L versus positive control at 0.01 mol/L; for activation at 5000 µM: isolated bullfrog heart, tested concentration 0.005 mol/L; for Average increase rate (%) (average amplitude growth rate of the frog heart) / Results (class of heart-strengthening effect): positive control
Experimental: The preparation of in vitro isolated bullfrog heart was carried out according to the method recorded in the literature (Ding Hong, Experimental Pharmacology, pp. 504-506, Science Publishing House, 2008) as follows. Bullfrogs weighing 150-200 g, male and female, were used herein. At room temperature, the brain and spinal cord of the bullfrogs was destroyed with a metal probe, and then the chest wall of the bullfrogs was incised to expose the heart and the right aorta and the left aorta were each threaded with a wire. The right aorta was knotted directly, and the left aorta was cut with scissors in a “V” shaped incision. A frog heart cannula containing a small amount of Ringer's solution was inserted into the ventricle. The wire of the left aorta was attached and secured to the lateral hook of the cannula. The blood in the heart tube of the bullfrogs was repeatedly flushed with fresh Ringer's solution until the fluid was clear and colorless. The heart cannula was inserted into the ventricle and perfused with Ringer's solution. The bullfrog heart cannula was fixed on the iron stand with a clamp. The muscle tension transducer was fixedly arranged under the bullfrog heart cannula, and the isolated bullfrog heart was connected to the muscle tension transducer via a bullfrog heart clip and a wire. The volume of solution in the cannula was adjusted by 1.0 mL and the subject compound or an equivalent volume of a solvent was added to the cannula. The subject compound was evaluated for cardiac activity on isolated perfused frog hearts, and heart rate and contraction amplitude were recorded.
The cardiotonic effects of compounds 1-10 provided in the present disclosure on isolated bullfrog hearts in vitro were investigated, with deacetylmaurolidine and mesaconitine as positive controls.
The tested concentration of compounds 1-10 was 0.005 mol/L, and the tested concentrations of the positive controls, i.e., mesaconitine and deacetylmaurolidine, were 0.01 mol/L and 0.0002 mol/L, respectively.

SERCA2a = assay: qPCR transcriptional level of SERCA2a in CoCl2-hypoxic H9c2 cells; format: cell-based; conditions: CoCl2-induced hypoxia in H9c2 cells, FIG. 2D
Experimental: (§1) FIGS. 2B-F show transcriptional level results (detected by q-PCR) of calcium channel-related indicators in cardiomyocytes, where 2B: DHPR; 2C: RyR2; 2D: SERCA2a; 2E: NCX; and 2F: NHE.
(§2) In FIGS. 2A-F, the detection is performed in triplicate; ##P<0.01, ###P<0.001, and ####P<0.0001, indicating the significant difference from the control group; and *P<0.05, **P<0.01, ***P<0.001, and ****P<0.0001, indicating the significant difference from the CoCl2 group.
(§3) When cells experienced hypoxic injury, a large amount of reactive oxygen species (ROS) was released. DCFH-DA probe was used to label ROS in H9c2 cells, and 900 μM CoCl2 and different concentrations of cammconine (12.5, 25, 50 PM) were administered to detect the changes in ROS by flow cytometry and fluorescence inverted microscopy. […] Changes in ATPase activity after treating the cells with myocardial hypoxia with cammaconine were detected by a kit. […] Changes in the transcriptional level of the cardiomyocyte hypoxia key indicator HIF-1α and calcium cycle-related indicators were detected by qPCR.

Ca2+/Mg2+-ATPase = Ca2+/Mg2+-ATPase activity in hypoxic cardiomyocytes (kit); format: cell-based; conditions: concentration of 25 mol/L; CoCl2-induced hypoxia in H9c2 cells
Experimental: (§4) FIGS. 1B-C show an effect of the compound 1 on the Na^+/K^+-ATPase specific activity and Ca^2+/Mg^2+-ATPase activity of the hypoxic cardiomyocytes, where the test is performed in triplicate; ##P<0.01, ###P<0.001, and ####P<0.0001, indicating the significant difference from the control group; and *P<0.05, **P<0.01, ***P<0.001, and ****P<0.0001, indicating the significant difference from the CoCl2 group;
as §3

DHPR = assay: qPCR transcriptional level of DHPR in CoCl2-hypoxic H9c2 cells; format: cell-based; conditions: CoCl2-induced hypoxia in H9c2 cells, FIG. 2B
Experimental: as §1, §2, §3

HIF-1α = assay: qPCR transcriptional level of HIF-1α in CoCl2-hypoxic H9c2 cells; format: cell-based; conditions: CoCl2-induced hypoxia in H9c2 cells, FIG. 2A
Experimental: as §2, §3

[1] = test system: reactive oxygen species (ROS) in H9c2 cells; assay: ROS detection with DCFH-DA probe in CoCl2-hypoxic H9c2 cells; format: cell-based; conditions: 12.5, 25, 50 PM; 900 μM CoCl2; flow cytometry and fluorescence microscopy
Experimental: FIGS. 1D-I show fluorescence detection results of reactive oxygen species (ROS) of different groups of H9c2 cells (scale bar: 20 μm), where 1D: control group; 1E: CoCl2 group; 1F: 50 μM-Trimetazidine group; 1G: 12.5 μM-Cammaconine group; 1H: 25 μM-Cammaconine group; and 11:50 μM-Cammaconine group;
as §3

H9c2 cells = assay: H9c2 cell viability by MTT assay, CoCl2-induced myocardial hypoxia; format: cell-based; conditions: concentration of 6.25-50 M, FIG. 1A
NCX = assay: qPCR transcriptional level of NCX in CoCl2-hypoxic H9c2 cells; format: cell-based; conditions: CoCl2-induced hypoxia in H9c2 cells, FIG. 2E
Experimental: as §1, §2, §3

Na+/K+-ATPase = Na+/K+-ATPase activity in hypoxic cardiomyocytes (kit); format: cell-based; conditions: concentration of 25 mol/L; CoCl2-induced hypoxia in H9c2 cells
Experimental: as §4, §3

RyR2 = assay: qPCR transcriptional level of RyR2 in CoCl2-hypoxic H9c2 cells; format: cell-based; conditions: CoCl2-induced hypoxia in H9c2 cells, FIG. 2C
Experimental: as §1, §2, §3

NHE = assay: qPCR transcriptional level of NHE in CoCl2-hypoxic H9c2 cells; format: cell-based; conditions: CoCl2-induced hypoxia in H9c2 cells, FIG. 2F
Experimental: as §1, §2, §3

[2] = read-out: Average increase rate (%) (average amplitude growth rate of the frog heart)
[3] = read-out: Results (class of heart-strengthening effect)
[4] = tested concentration 0.01 mol/L
[5] = tested concentration 0.0002 mol/L

Molecule | Cardiotonic effect compared with the positive control (isolated bullfrog hearts) | activation at 5000 µM (isolated bullfrog hearts; [2]) | activation at 5000 µM (isolated bullfrog hearts; [3]) | further results
CCN1C[C@]2(CO)CC[C@H](OC)[C@@]34C5C[C@@H]6[C@@H](OC)C[C@@](O)(C5[C@H]6O)C(CC23)[C@@H]14 (stereo partly drawn) [Compound 1, cammaconine] | better cardiotonic effect; also recorded: significantly enhanced | 118% | > 60% | mRNA level of SERCA2a (SERCA2a): decreased; Ca2+/Mg2+-ATPase activity (Ca2+/Mg2+-ATPase): increase the enzyme activity; mRNA level of DHPR (DHPR): decreased; mRNA transcriptional level of HIF-1α (HIF-1α): decreased; Levels of ROS in H9c2 cells [1]: significantly reduced; Cardioprotective effect on H9c2 cells (cell viability, MTT) (H9c2 cells): certain cardioprotective effects; mRNA level of NCX (NCX): decreased; Na+/K+-ATPase activity (Na+/K+-ATPase): increase the enzyme activity; mRNA level of RyR2 (RyR2): decreased; mRNA level of NHE (NHE): decreased
CO[C@H]1C[C@@]2(O)C3C(C[C@H]1[C@@H]3O)[C@]13C4CC2[C@H]1N(C)C[C@]4(CO)CC[C@@H]3OC (stereo partly drawn) [Compound 2, N-deethyl-N-methyl cammaconine] | better cardiotonic effect; also recorded: significantly enhanced | 159% | > 60% | 
CO[C@H]1C[C@@]2(O)C3C(C[C@H]1[C@@H]3O)[C@]13C4CC2[C@H]1NC[C@]4(CO)CC[C@@H]3OC (stereo partly drawn) [Compound 3, N-deethyl cammaconine] |  | 36.8% | 31 to 60% | 
CCN1C[C@]2(CO)CC[C@H](OC)[C@@]34C5C[C@@H]6[C@@H](OC)C[C@@](O)(C5[C@H]6OC)C(CC23)[C@@H]14 (stereo partly drawn) [Compound 4, scaconine] | better cardiotonic effect; also recorded: significantly enhanced | 156% | > 60% | 
CCN1C[C@]2(CO)CC[C@H](OC)[C@@]34C5C[C@@H]6[C@@H](OC)C[C@@](OC)(C5[C@H]6O)C(CC23)[C@@H]14 (stereo partly drawn) [Compound 5, 8-O-methyl cammaconine] |  | 33.6% | 31 to 60% | 
CCN1C[C@]2(CO)CC[C@H](OC)[C@@]34C5C[C@@H]6[C@@H](OC)C[C@@](OC)(C5[C@H]6OC)C(CC23)[C@@H]14 (stereo partly drawn) [Compound 6, 8,14-O-dimethyl cammaconine] |  | 31.2% | 31 to 60% | 
CCN1C[C@]2(CO)CC[C@H](OC)[C@@]34C5C[C@H]6[C@H](O)C5[C@](O)(C[C@@H]6O)C(CC23)[C@@H]14 (stereo partly drawn) [Compound 7, 16-demethyl cammaconine] | better cardiotonic effect; also recorded: significantly enhanced | 75.2% | > 60% | 
CCO[C@]12C[C@H](OC)[C@H]3CC(C1[C@H]3O)[C@]13C4CC2[C@H]1N(CC)C[C@]4(CO)CC[C@@H]3OC (stereo partly drawn) [Compound 8, 8-O-ethyl cammaconine] |  | 57.2% | 31 to 60% | 
CCO[C@]12C[C@H](OC)[C@H]3CC(C1[C@H]3OC)[C@]13C4CC2[C@H]1N(CC)C[C@]4(CO)CC[C@@H]3OC (stereo partly drawn) [Compound 9, 8-O-ethyl, 14-O-methyl cammaconine] |  | 21.8% | 16 to 30% | 
CO[C@H]1C[C@@]2(O)C3C(C[C@H]1[C@@H]3OC)[C@]13C4CC2[C@H]1N(C)C[C@]4(CO)CC[C@@H]3OC (stereo partly drawn) [Compound 10, N-deethyl-N-methyl 14-O-methyl cammaconine] | better cardiotonic effect; also recorded: significantly enhanced | 148% | > 60% | 
COC[C@]12CN(C)[C@@H]3[C@@H]4[C@H](OC)[C@H]1[C@@]3([C@@H](OC)C[C@H]2O)[C@@H]1C[C@@]2(O)[C@H](OC(=O)c3ccccc3)[C@@H]1[C@]4(OC(C)=O)[C@@H](O)[C@@H]2OC [Mesaconitine, mesaconitine, reference compound] |  |  |  | Average increase rate (%) (average amplitude growth rate of the frog heart) (isolated bullfrog hearts; [4]): 70.7%; Results (class of heart-strengthening effect) (isolated bullfrog hearts; [4]): Strong (>60% (+++, strong))
deacetylmaurolidine [reference compound] |  |  |  | Average increase rate (%) (average amplitude growth rate of the frog heart) (isolated bullfrog hearts; [5]): 61%; Results (class of heart-strengthening effect) (isolated bullfrog hearts; [5]): Strong (>60% (+++, strong))
